Experimental data taken from US9023844B2, “Heterocyclylpyri (mi) dinylpyrazole as fungicidals” (Bayer Intellectual Property GmbH, priority 2011, dated 2015).

Legend:
[1] = system: DON/Acetyl-DON production by Fusarium graminearum; experiment: microbe, parasite or virus in culture; assay type: cell-based; conditions: at 50 μM
Fusarium graminearum = experiment: microbe, parasite or virus in culture; assay type: cell-based; conditions: at 50 μM
Sphaerotheca fuliginea = conditions: in vivo
Alternaria brassicae = conditions: in vivo
[2] = Determination of log P values by HPLC on a reverse phase column (C18), EEC-Directive 79/831 Annex V.A8 (Methods A, B, C); assay type: physicochemical
How it was run: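 Three C18 chromatographic methods following EEC-Directive 79/831 Annex V.A8 gave the logP values. Method C (UPLC, 2.1 mm column) ran at 40 °C and 0.8 mL/min with a 3.25 min 10–95% acetonitrile gradient. Methods A and B both ran at 55 °C and 2.0 mL/min, with gradients of 10–95% in 4.25 min and 5–95% in 1.70 min.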

Botrytis cinerea = experiment: Example N: in vivo preventive test on Botrytis cinerea (grey mould); conditions: dose of 500 ppm; gherkin plants; grading 4-5 days after contamination
Description: The active ingredients tested are prepared by homogenization in a mixture of acetone/tween/DMSO and then diluted with water to obtain the desired active material.
Gherkin plants (“Vert petit de Paris” variety), sown in starter cups on a 50/50 peat soil-pozzolana substrate and grown at 24° C., are treated at the Z11 cotyledon stage by spraying with the active ingredient prepared as described above. Plants, used as controls, are treated with the mixture of acetone/tween/DMSO/water not containing the active material.
After 24 hours, the plants are contaminated by spraying the cotyledons with an aqueous suspension of cryopreserved Botrytis cinerea spores (50 000 spores per ml). The spores are suspended in a nutrient solution composed of 10 g/L of PDB, 50 g/L of D-Fructose, 2 g/L of NH4NO3 and 1 g/L of KH2PO4. The contaminated gherkin plants are incubated at 17° C. and at 80% relative humidity.
Grading (% of efficacy) is carried out 4-5 days after the contamination, in comparison with the control plants.

Uromyces appendiculatus = conditions: in vivo
Pyricularia oryzae = assay type: in vivo; conditions: in vivo
Septoria tritici = conditions: in vivo
Puccinia recondita = conditions: in vivo
Phytophthora infestans [3] = conditions: in vivo
Pyrenophora teres = conditions: in vivo
Plasmopara viticola = experiment: Example H: Plasmopara test (grapevines) / preventive; assay type: in vivo; conditions: in vivo
Phytophthora infestans [4] = assay type: in vivo; conditions: in vivo
Venturia inaequalis = experiment: Example I: Venturia test (apples) / preventive; conditions: 100 ppm of active ingredient, preventive spray, evaluated 10 days after inoculation
Description: After the spray coating has dried on, the plants are inoculated with an aqueous conidia suspension of the causal agent of apple scab (Venturia inaequalis) and then remain for 1 day in an incubation cabinet at approximately 20° C. and a relative atmospheric humidity of 100%.
The plants are then placed in a greenhouse at approximately 21° C. and a relative atmospheric humidity of approximately 90%.
The test is evaluated 10 days after the inoculation.

[5] = Method A: HPLC, reverse phase C18, acetonitrile (0.1% formic acid)/water (0.09% formic acid) gradient
[6] = Method B (HPLC, reverse phase C18)

Structure (SMILES) | Inhibition of DON/AcDON in % [1] | Growth inhibition of Fusarium graminearum in % (Fusarium graminearum) | protection (% of efficacy) (Sphaerotheca fuliginea) | protection (% of efficacy) (Alternaria brassicae) | LogP [2, 5] | protection (% of efficacy) (Botrytis cinerea) | protection (% of efficacy) (Uromyces appendiculatus) | protection (% of efficacy) (Pyricularia oryzae) | LogP [2, 6] | protection (% of efficacy) (Septoria tritici) | protection (% of efficacy) (Puccinia recondita) | protection (% of efficacy) (Phytophthora infestans [3]) | protection (% of efficacy) (Pyrenophora teres) | efficacy (Plasmopara viticola) | efficacy (Phytophthora infestans [4]) | efficacy (Venturia inaequalis)
CCC(=O)Nc1cc(-c2c(-c3ccccc3)nn3ccoc23)ccn1 [Example 106] | 95% | 65% | 98% | 79% | 1.46 | 100% | 81% | – | – | – | – | – | – | – | – | –
C[S+]([O-])C(C)(C)C(=O)Nc1cc(-c2c(-c3ccc(F)cc3)nn3c2OCCC3)ccn1 (stereo not shown) [Example 68] | – | – | 89% | – | – | 80% | – | 80% | 1.69 | 93% | 81% | – | – | – | – | –
CCC(=O)Nc1cc(-c2c(-c3ccc(F)cc3)nn3c2O[C@H](C)C[C@@H]3C)ccn1 [Example 73] | 100% | 83% | 100% | – | 1.74 | – | 86% | 90% | – | – | 88% | 85% | 94% | – | – | –
CCC(=O)Nc1cc(-c2c(-c3ccc(F)cc3)nn3c(C)coc23)ccn1 [Example 103] | – | – | – | 93% | 1.86 | 80% | – | – | – | – | – | – | – | – | – | –
CCC(=O)Nc1cc(-c2c(-c3ccc(F)cc3)nn3c2O[C@H](C)C[C@H]3C)ccn1 [Example 72] | 100% | 77% | 100% | – | 1.84 | – | 96% | 80% | – | 75% | 98% | 75% | 94% | – | – | –
O=C(Nc1cc(-c2c(-c3ccc(F)cc3)nn3c2OCCC3)ccn1)C1CC2CCC1C2 (stereo not shown) [Example 64] | 98% | 83% | 100% | – | – | 100% | – | 80% | 3.11 | 86% | 81% | – | – | – | – | –
CCC(=O)Nc1cc(-c2c(-c3ccc(F)cc3)nn3ccoc23)ccn1 [Example 105] | 99% | 83% | – | 93% | 1.61 | 100% | 96% | – | – | – | 75% | – | 81% | 100% | 95% | 93%
CCC(=O)Nc1cc(-c2c(-c3ccc(F)cc3)nn3c2OC(C)C3C)ccn1 (stereo not shown) [Example 75] | 100% | 88% | 100% | – | 1.67 | – | 100% | 90% | – | – | 88% | 95% | 98% | – | – | –
CCC(=O)Nc1cc(-c2c(-c3ccc(F)cc3)nn3c2OCC(F)(F)C3)ccn1 [Example 74] | – | – | 94% | – | 1.9 | – | – | 80% | – | – | 88% | 79% | 81% | – | – | –
O=C(CN1CCCCC1)Nc1cc(-c2c(-c3ccc(F)cc3)nn3c2OCCC3)ccn1 [Example 66] | – | – | 94% | – | – | – | – | 80% | 1 | 79% | 81% | – | – | – | – | –
CCC(=O)Nc1cc(-c2c(-c3ccc(F)cc3)nn3c(CC)coc23)ccn1 [Example 104] | – | – | – | 79% | 2.23 | 85% | 88% | 75% | – | – | – | – | – | 95% | 93% | 93%
